Patent US12667549B2 (DOMPÉ FARMACEUTICI S.P.A., priority 2020, dated 2026)
“Also recorded” adds a separate entry of the source.

Key:
[1] = Plasma and brain levels of Gabapentin after oral administration as capsules; settings: male, Sprague-Dawley, rat, in vivo, 2 capsules
osteoarthritis = settings: prolonged administration; cited from earlier work
[2] = cited from earlier work
[3] = system: carrageenan-induced rat paw edema; assay: Inflammatory pain in rats induced by carrageenan intraplantar injection (paw edema); assay type: in vivo, Male Wistar rats; settings: oral capsules 1 h before 1% carrageenan; KL Co-xx 47.1 mg/kg, Gabapentin 20.4 mg/kg, admixture 47.1+20.4 mg/kg; FIGS. 4 and 5
Text: Rat chow and tap water were available ad libitum. […] Animal care was in compliance with Italian Legislative Decree (D.L. 116/92) and European Commission Directive (O.J. of E.C. L358/1, 18/12/86) regulations on the protection of laboratory animals. All efforts were made to minimize animal suffering and the number of animals used.
Edema was expressed as the mean increase in paw volume (ml) relative to control animals.

[4] = in vivo; cited from earlier work

SMILES: NCC1(CC(=O)O)CCCCC1 [Gabapentin]
- Kp at 2 h [1]: 0.378
- start of therapeutic effect in osteoarthritis (duration of administration) (osteoarthritis): 3 months
- time of utmost level in plasma ([2]; after oral administration): 3 to 4 h
- binding to plasma proteins ([2]; in vivo): does not attach to plasma proteins
- hepatic metabolism ([2]; in vivo): neither inhibited nor metabolized by hepatic enzymes
- excretion half-life ([2]; renal excretion): roughly 6 hours
- anti-inflammatory effect on carrageenan-evoked edema (paw volume, % inhibition) [3]: less effective; also recorded: little active on inflammatory pain
- side effect: ataxia [4]: 13%
- side effect: dizziness [4]: 18%
- side effect: fatigue [4]: 11%
- side effect: somnolence [4]: 20%
